Values quoted from earlier work, collected in patent US8569273B2, “Ophthalmic formulations of cetirizine and methods of use” (Aciex Therapeutics, Inc., priority 2009, dated 2013).

Settings: ophthalmic antihistamine

SMILES: O=C(O)CCCN1CCC(O[C@@H](c2ccc(Cl)cc2)c2ccccn2)CC1 [bepotastine]
- duration of action: 8 h

SMILES: C[C@@H]1CN([C@H]2CC[C@](C#N)(c3ccc(F)cc3)CC2)CC[C@]1(C(=O)O)c1ccccc1 [levocabastine]
- duration of action: 2 to 4 h
